# From US7138361B2, “Herbicidal heterocycles” (E. I. du Pont de Nemours and Company, priority 2000, dated 2006)
# Assays:
# Test in all cases: Test C preemergence
# Type in all cases: in vivo
# Nightshade [1] = details: Rate 250 g/ha, visual evaluation after 12 to 14 days
# [2] = system: common ragweed (Ambrosia elatior)
# Excerpt: (§1) Seeds of plant species selected from bermudagrass (Cynodon dactylon), Surinam grass (Brachiaria decumbens), cocklebur (Xanthium strumarium), corn (Zea mays), crabgrass (Digitaria sanguinalis), woolly cupgrass (Eriochloa villosa), giant foxtail (Setaria faberii), goosegrass (Eleusine indica), johnsongrass (Sorghum halepense), kochia (Kochia scoparia), lambsquarters (Chenopodium album), morningglory (Ipomoea hederacea), yellow nutsedge (Cyperus esculentus), pigweed (Amaranthus retroflexus), common ragweed (Ambrosia elatior), soybean (Glycine max) and velvetleaf (Abutilon theophrasti) were planted and treated preemergence with test chemicals formulated in a non-phytotoxic solvent mixture which included a surfactant.
# (§2) At the same time, plants selected from these crop and weed species and also winter barley (Hordeum vulgare), blackgrass (Alopecurus myosuroides), canary grass (Phalaris minor), chickweed (Stellaria media), downy brome (Bromus tectorum), green foxtail (Setaria viridis), Italian ryegrass (Lolium multiflorum), wheat (Triticum aestivum), wild oat (Avena fatua) and windgrass (Apera spica-venti) were treated with postemergence applications of some of the test chemicals formulated in the same manner. Plants ranged in height from 2 to 18 cm (1- to 4-leaf stage) for postemergence treatments. Plant species in the flooded paddy test consisted of rice (Oryza saliva), smallflower flatsedge (Cyperus difformis), duck salad (Heteranthera limosa) and barnyardgrass (Echinochloa crus-galli) grown to the 2-leaf stage for testing. Treated plants and controls were maintained in a greenhouse for 12 to 14 days, after which time all species were compared to controls and visually evaluated. Plant response ratings, summarized in Table C, are based on a scale of 0 to 100 where 0 is no effect and 100 is complete control. A dash (-) response means no test result.
# [3] = system: johnsongrass (Sorghum halepense)
# Excerpt: as §1, §2
# [4] = system: woolly cupgrass (Eriochloa villosa)
# Excerpt: as §1, §2
# [5] = system: pigweed (Amaranthus retroflexus)
# Excerpt: as §1, §2
# Nightshade [6] = system: Nightshade
# Excerpt: as §1, §2
# [7] = system: bermudagrass (Cynodon dactylon)
# Excerpt: as §1, §2
# [8] = system: Surinam grass (Brachiaria decumbens)
# Excerpt: as §1, §2
# [9] = system: goosegrass (Eleusine indica)
# Excerpt: as §1, §2
# [10] = system: morningglory (Ipomoea hederacea)
# Excerpt: as §1, §2
# [11] = system: crabgrass (Digitaria sanguinalis)
# Excerpt: as §1, §2
# [12] = system: velvetleaf (Abutilon theophrasti)
# Excerpt: as §1, §2
# [13] = system: giant foxtail (Setaria faberii)
# Excerpt: as §1, §2
# Sunflower = system: Sunflower
# Excerpt: as §1, §2
# soybean (Glycine max) = system: soybean (Glycine max)
# Excerpt: as §1, §2
# corn (Zea mays) = system: corn (Zea mays)
# Excerpt: as §1, §2
# [14] = system: lambsquarters (Chenopodium album)
# Excerpt: as §1, §2
# [15] = system: yellow nutsedge (Cyperus esculentus)
# Excerpt: as §1, §2
# [16] = system: cocklebur (Xanthium strumarium)
# Excerpt: as §1, §2
# [17] = Preemergence, Rate 500 g/ha, scale 0 to 100
# [18] = Rate 62 g/ha, scale 0 to 100, 0 no effect, 100 complete control
# [19] = preemergence, Rate 250 g/ha, visual evaluation after 12 to 14 days
# [20] = preemergence, Rate 125 g/ha, scale 0 to 100, 0 no effect, 100 complete control
smiles,measurement,setting,value
CC(C)(C)c1ccn(C2SCN(c3cccc(OC(F)(F)F)c3)C2=O)n1 (stereo not drawn) [Compound 30],"Plant response rating (0 to 100), Nightshade",Nightshade [1],100
same,"Plant response rating, Ragweed, Common",[2]; [17],100
same,"Plant response rating, Ragweed, Common",[2]; [18],0
same,"Plant response rating (0 to 100), Ragweed, Common",[2]; [19],90
same,"Plant response rating, Ragweed, Common",[2]; [20],90
same,"Plant response rating, Johnsongrass",[3]; [17],100
same,"Plant response rating, Johnsongrass",[3]; [18],30
same,"Plant response rating (0 to 100), Johnsongrass",[3]; [19],90
same,"Plant response rating, Johnsongrass",[3]; [20],40
same,"Plant response rating, Cupgrass, Woolly",[4]; [17],100
same,"Plant response rating, Cupgrass, Woolly",[4]; [18],70
same,"Plant response rating (0 to 100), Cupgrass, Woolly",[4]; [19],90
same,"Plant response rating, Cupgrass, Woolly",[4]; [20],70
same,"Plant response rating, Pigweed",[5]; [17],100
same,"Plant response rating, Pigweed",[5]; [18],90
same,"Plant response rating (0 to 100), Pigweed",[5]; [19],90
same,"Plant response rating, Pigweed",[5]; [20],50
same,"Plant response rating, Nightshade",Nightshade [6]; [18],80
same,"Plant response rating, Nightshade","Nightshade [6]; Rate 125 g/ha, scale 0 to 100, 0 no effect, 100 complete control",90
same,"Plant response rating, Nightshade","Nightshade [6]; Rate 500 g/ha, scale 0 to 100",100
same,"Plant response rating, Bermudagrass",[7]; [17],100
same,"Plant response rating, Bermudagrass",[7]; [18],100
same,"Plant response rating (0 to 100 where 0 is no effect and 100 is complete control), Bermudagrass",[7]; [19],100
same,"Plant response rating, Bermudagrass",[7]; [20],100
same,"Plant response rating, Surinam grass",[8]; [17],60
same,"Plant response rating, Surinam grass",[8]; [18],20
same,"Plant response rating (0 to 100), Surinam grass",[8]; [19],40
same,"Plant response rating, Surinam grass",[8]; [20],40
same,"Plant response rating, Goosegrass",[9]; [17],100
same,"Plant response rating, Goosegrass",[9]; [18],100
same,"Plant response rating (0 to 100), Goosegrass",[9]; [19],100
same,"Plant response rating, Goosegrass",[9]; [20],100
same,"Plant response rating, Morningglory",[10]; [17],80
same,"Plant response rating, Morningglory",[10]; [18],30
same,"Plant response rating (0 to 100), Morningglory",[10]; [19],80
same,"Plant response rating, Morningglory",[10]; [20],30
same,"Plant response rating, Crabgrass",[11]; [17],100
same,"Plant response rating, Crabgrass",[11]; [18],100
same,"Plant response rating (0 to 100), Crabgrass",[11]; [19],100
same,"Plant response rating, Crabgrass",[11]; [20],100
same,"Plant response rating, Velvetleaf",[12]; [17],30
same,"Plant response rating, Velvetleaf",[12]; [18],0
same,"Plant response rating (0 to 100), Velvetleaf",[12]; [19],0
same,"Plant response rating, Velvetleaf",[12]; [20],0
same,"Plant response rating, Foxtail, Giant",[13]; [17],100
same,"Plant response rating, Foxtail, Giant",[13]; [18],80
same,"Plant response rating (0 to 100), Foxtail, Giant",[13]; [19],90
same,"Plant response rating, Foxtail, Giant",[13]; [20],60
same,"Plant response rating, Sunflower",Sunflower; [18],0
same,"Plant response rating, Sunflower","Sunflower; Rate 500 g/ha, scale 0 to 100",100
same,"Plant response rating, Soybean",soybean (Glycine max); [17],70
same,"Plant response rating, Soybean",soybean (Glycine max); [18],30
same,"Plant response rating (0 to 100), Soybean",soybean (Glycine max); [19],70
same,"Plant response rating, Soybean",soybean (Glycine max); [20],70
same,"Plant response rating, Corn",corn (Zea mays); [17],50
same,"Plant response rating, Corn",corn (Zea mays); [18],30
same,"Plant response rating (0 to 100), Corn",corn (Zea mays); [19],50
same,"Plant response rating, Corn",corn (Zea mays); [20],40
same,"Plant response rating, Lambsquarters",[14]; [17],100
same,"Plant response rating, Lambsquarters",[14]; [18],100
same,"Plant response rating (0 to 100), Lambsquarters",[14]; [19],100
same,"Plant response rating, Lambsquarters",[14]; [20],100
same,"Plant response rating, Nutsedge",[15]; [17],40
same,"Plant response rating, Nutsedge",[15]; [18],20
same,"Plant response rating (0 to 100), Nutsedge",[15]; [19],40
same,"Plant response rating, Cocklebur",[16]; [17],80
same,"Plant response rating, Cocklebur",[16]; [18],0
same,"Plant response rating (0 to 100), Cocklebur",[16]; [19],0
same,"Plant response rating, Cocklebur",[16]; [20],0
